Measurements from patent US20220363665A1, “QUINOLINE COMPOUNDS FOR THE TREATMENT OF AUTOIMMUNE DISEASE” (Hoffmann-La Roche Inc., priority 2019, published 2022).
pIC50: −log10 of the molar value.

Target: T1, human TLR7 (Homo sapiens, UniProt Q9NYK1)
T1 construct: host or cells: HEK293 (HEK-Blue hTLR7)
T1 sequence (Q9NYK1 27-1049): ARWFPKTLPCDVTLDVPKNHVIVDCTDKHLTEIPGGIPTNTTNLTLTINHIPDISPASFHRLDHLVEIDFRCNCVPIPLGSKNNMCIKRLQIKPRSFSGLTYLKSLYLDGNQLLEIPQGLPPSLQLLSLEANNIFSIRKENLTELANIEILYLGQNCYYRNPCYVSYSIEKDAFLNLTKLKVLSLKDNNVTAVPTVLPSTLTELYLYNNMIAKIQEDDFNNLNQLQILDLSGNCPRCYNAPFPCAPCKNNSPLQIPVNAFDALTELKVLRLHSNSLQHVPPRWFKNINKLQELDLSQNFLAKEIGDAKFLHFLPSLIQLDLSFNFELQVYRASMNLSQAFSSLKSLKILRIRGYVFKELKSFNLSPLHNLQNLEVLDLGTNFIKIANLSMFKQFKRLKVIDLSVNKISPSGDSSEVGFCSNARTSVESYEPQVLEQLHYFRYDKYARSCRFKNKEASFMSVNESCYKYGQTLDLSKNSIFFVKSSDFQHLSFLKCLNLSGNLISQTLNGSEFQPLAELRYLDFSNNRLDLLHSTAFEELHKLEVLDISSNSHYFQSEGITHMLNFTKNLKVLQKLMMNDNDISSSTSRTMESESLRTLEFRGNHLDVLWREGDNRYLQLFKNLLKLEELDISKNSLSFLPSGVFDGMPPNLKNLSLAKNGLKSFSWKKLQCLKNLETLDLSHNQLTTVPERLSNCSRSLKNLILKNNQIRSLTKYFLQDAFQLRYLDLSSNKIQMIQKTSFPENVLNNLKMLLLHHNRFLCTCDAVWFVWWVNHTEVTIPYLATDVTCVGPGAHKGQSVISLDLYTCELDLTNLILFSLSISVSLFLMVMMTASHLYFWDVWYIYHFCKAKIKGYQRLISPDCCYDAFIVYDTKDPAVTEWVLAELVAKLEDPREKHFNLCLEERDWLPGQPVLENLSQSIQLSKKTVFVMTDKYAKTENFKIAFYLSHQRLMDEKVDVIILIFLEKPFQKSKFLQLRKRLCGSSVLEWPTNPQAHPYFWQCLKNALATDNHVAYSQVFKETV
Test: HEK293-Blue-hTLR-7 cells assay (SEAP reporter, R848 stimulation)
Type: cell-based
Details: HEK293-Blue-hTLR7 cells, R848, 20 hrs
Description: The following tests were carried out in order to determine the activity of the compounds of formula (I) in HEK293-Blue-hTLR-7/8/9 cells assay.
HEK293-Blue-hTLR-7 Cells Assay:
A stable HEK293-Blue-hTLR-7 cell line was purchased from InvivoGen (Cat. #: hkb-htlr7, San Diego, Calif. USA). These cells were originally designed for studying the stimulation of human TLR7 by monitoring the activation of NF-κB. A SEAP (secreted embryonic alkaline phosphatase) reporter gene was placed under the control of the IFN-β minimal promoter fused to five NF-κB and AP-1-binding sites. The SEAP was induced by activating NF-κB and AP-1 via stimulating HEK-Blue hTLR7 cells with TLR7 ligands. Therefore the reporter expression was declined by TLR7 antagonist under the stimulation of a ligand, such as R848 (Resiquimod), for incubation of 20 hrs. The cell culture supernatant SEAP reporter activity was determined using QUANTI-Blue™ kit (Cat. #: rep-qbl, Invivogen, San Diego, Calif., USA) at a wavelength of 640 nm, a detection medium that turns purple or blue in the presence of alkaline phosphatase.
HEK293-Blue-hTLR7 cells were incubated at a density of 250,000˜450,000 cells/mL in a volume of 170 μL in a 96-well plate in Dulbecco's Modified Eagle's medium (DMEM) containing 4.5 g/L glucose, 50 U/mL penicillin, […], […], 2 mM L-glutamine, 10% (v/v) heat-inactivated fetal bovine serum with addition of 20 μL A test compound in a serial dilution in the presence of final DMSO at 1% and 10 μL of 20 uM R848 in above DMEM, perform incubation under 37° C. in a CO2 incubator for 20 hrs. Then 20 μL of the supernatant from each well was incubated with 180 μQuanti-blue substrate solution at 37° C. for 2 hrs and the absorbance was read at 620˜655 nm using a spectrophotometer. The signalling pathway that TLR7 activation leads to downstream NF-κB activation has been widely accepted, and therefore similar reporter assay was modified for evaluating TLR7 antagonist.

| Structure (SMILES) | pIC50 |
| --- | --- |
| C[C@@H]1CN(c2ccc(C(F)(F)F)c3ncccc23)C[C@H](C(=O)NC2CNC[C@@H]2F)O1 (stereo partly drawn) [Example 2, cis-(2R,6R)-N-(4-fluoropyrrolidin-3-yl)-6-methyl-4-[8-(trifluoromethyl)-5-quinolyl]morpholine-2-carboxamide] | 7.28 |
| C[C@@H]1CN(c2ccc(C(F)(F)F)c3ncccc23)C[C@H](C(=O)NC2CC3CCC(C2)N3)O1 (single isomer, unassigned) [Example 47A] | > 8.52 |
| C[C@@H]1CN(c2ccc(C(F)(F)F)c3ncccc23)C[C@H](C(=O)N2CCC3(CCNCC3)CC2)O1 [Example 32, 3,9-diazaspiro[5.5]undecan-3-yl-[(2R,6R)-6-methyl-4-[8-(trifluoromethyl)-5-quinolyl]morpholin-2-yl]methanone] | 7.11 |
| C[C@H]1C[C@@H](N)CN(c2ccc(C(F)(F)F)c3ncccc23)C1 [Example 1, (3R,5S)-5-methyl-1-[8-(trifluoromethyl)-5-quinolyl]piperidin-3-amine] | 8.30 |
| C[C@@H]1CN(c2ccc(C(F)(F)F)c3ncccc23)C[C@H](C(=O)N[C@@H]2CNC[C@@H]2F)O1 (single isomer, unassigned) [Example 2A] | 7.39 |
| C[C@@H]1CN(c2ccc(C(F)(F)F)c3ncccc23)C[C@H](C(=O)NCC(C)(C)N)O1 [Example 6, (2R,6R)-N-(2-amino-2-methyl-propyl)-6-methyl-4-[8-(trifluoromethyl)-5-quinolyl]morpholine-2-carboxamide] | 7.51 |
| C[C@@H]1CN(c2ccc(C(F)(F)F)c3ncccc23)C[C@H](C(=O)NC2CC3CCC(C2)N3)O1 (single isomer, unassigned) [Example 47B] | > 8.52 |
| C[C@@H]1CN(c2ccc(C(F)(F)F)c3ncccc23)C[C@H](C(=O)NCC2CNCCO2)O1 (stereo partly drawn) [Example 48, (2R,6R)-6-methyl-N-(morpholin-2-ylmethyl)-4-[8-(trifluoromethyl)-5-quinolyl]morpholine-2-carboxamide] | 8.40 |
| C[C@@H]1CN(c2ccc(C(F)(F)F)c3ncccc23)C[C@H](C(=O)NCC2CNCC2(F)F)O1 (stereo partly drawn) [Example 29, (2R,6R)-N-[(4,4-difluoropyrrolidin-3-yl)methyl]-6-methyl-4-[8-(trifluoromethyl)-5-quinolyl]morpholine-2-carboxamide] | 7.43 |
| C[C@@H]1CN(c2ccc(C(F)(F)F)c3ncccc23)C[C@H](C(=O)NC2C3CCCC2CNC3)O1 (stereo partly drawn) [Example 45, (2R,6R)-N-(3-azabicyclo[3.3.1]nonan-9-yl)-6-methyl-4-[8-(trifluoromethyl)-5-quinolyl]morpholine-2-carboxamide] | > 8.52 |
| C[C@@H]1CN(c2ccc([N+](=O)[O-])c3ncccc23)C[C@H](C(=O)NCC2CN(C)CCO2)O1 (stereo partly drawn) [Example 18, (2R,6R)-6-methyl-N-[(4-methylmorpholin-2-yl)methyl]-4-(8-nitro-5-quinolyl)morpholine-2-carboxamide] | 8.30 |
| C[C@@H]1CN(c2ccc(C(F)(F)F)c3ncccc23)C[C@H](C(=O)NC2CC3COCC(C2)N3)O1 (stereo partly drawn) [Example 33, (2R,6R)-6-methyl-N-(3-oxa-9-azabicyclo[3.3.1]nonan-7-yl)-4-[8-(trifluoromethyl)-5-quinolyl]morpholine-2-carboxamide] | 8.70 |
| C[C@@H]1CN(c2ccc(C(F)(F)F)c3ncccc23)C[C@H](C(=O)NCCN2CCOCC2)O1 [Example 13, (2R,6R)-6-methyl-N-(2-morpholinoethyl)-4-[8-(trifluoromethyl)-5-quinolyl]morpholine-2-carboxamide] | 6.54 |
| C[C@@H]1CN(c2ccc(C(F)(F)F)c3ncccc23)C[C@H](C(=O)NC2C[C@H]3C[C@@H]2CN3)O1 (stereo partly shown) [Example 44] | 7.74 |
| C[C@@H]1CN(c2ccc(C(F)(F)F)c3ncccc23)C[C@H](C(=O)N[C@H]2CNC[C@H]2F)O1 (single isomer, unassigned) [Example 2B] | 7.82 |
| C[C@@H]1CN(c2ccc(C(F)(F)F)c3ncccc23)C[C@H](C(=O)NC2C3CNCC2COC3)O1 (single isomer, unassigned) [Example 46A] | 8.10 |
| C[C@H]1C[C@@H](N)CN(c2ccc(Cl)c3ncccc23)C1 [Example 23, (3R,5S)-1-(8-chloro-5-quinolyl)-5-methyl-piperidin-3-amine] | 8.15 |

Now from value to molecule:

| pIC50 | Structure (SMILES) |
| --- | --- |
| 8.15 | C[C@@H]1CN(c2ccc(I)c3ncccc23)C[C@H](C(=O)NCC2CN(C)CCO2)O1 (stereo partly drawn) [Example 39, (2R,6R)-4-(8-iodo-5-quinolyl)-6-methyl-N-[(4-methylmorpholin-2-yl)methyl]morpholine-2-carboxamide] |
| 8.30 | C[C@@H]1CN(c2ccc(C(F)(F)F)c3ncccc23)C[C@H](C(=O)NC2C3CCC2CNC3)O1 (stereo partly drawn) [Example 31, (2R,6R)-N-(3-azabicyclo[3.2.1]octan-8-yl)-6-methyl-4-[8-(trifluoromethyl)-5-quinolyl]morpholine-2-carboxamide] |
| 7.55 | CC(NC(=O)[C@H]1CN(c2ccc(C(F)(F)F)c3ncccc23)C[C@@H](C)O1)C1CN(C)CCO1 (single isomer, unassigned) [Example 35A] |
| 8.30 | C[C@@H]1CN(c2ccc(Br)c3ncccc23)C[C@H](C(=O)NC2CCN(C)CC2)O1 [Example 42, (2R,6R)-4-(8-bromo-5-quinolyl)-6-methyl-N-(1-methyl-4-piperidyl)morpholine-2-carboxamide] |
| 7.13 | Cc1ccc(N2C[C@@H](C)O[C@@H](C(=O)NC3CCN(C)CC3)C2)c2cccnc12 [Example 16, (2R,6R)-6-methyl-N-(1-methyl-4-piperidyl)-4-(8-methyl-5-quinolyl)morpholine-2-carboxamide] |
| 7.92 | C[C@@H]1CN(c2ccc(Cl)c3ncccc23)C[C@H](C(=O)NC2CCCNCC2)O1 (stereo partly drawn) [Example 25, (2R,6R)-N-(azepan-4-yl)-4-(8-chloro-5-quinolyl)-6-methyl-morpholine-2-carboxamide] |
| 7.29 | C[C@@H]1CN(c2ccc(C(F)(F)F)c3ncccc23)C[C@H](C(=O)NCC2COCCN2C)O1 (stereo partly drawn) [Example 11, (2R,6R)-6-methyl-N-[(4-methylmorpholin-3-yl)methyl]-4-[8-(trifluoromethyl)-5-quinolyl]morpholine-2-carboxamide] |
| 8.52 | C[C@@H]1CN(c2ccc(I)c3ncccc23)C[C@H](C(=O)NC2CCN(C)CC2)O1 [Example 38, (2R,6R)-4-(8-iodo-5-quinolyl)-6-methyl-N-(1-methyl-4-piperidyl)morpholine-2-carboxamide] |
| 7.82 | C[C@@H]1CN(c2ccc(I)c3ncccc23)C[C@H](C(=O)NC2CNCC2F)O1 (stereo partly drawn) [Example 40, cis-(2R,6R)-N-[4-fluoropyrrolidin-3-yl]-4-(8-iodo-5-quinolyl)-6-methyl-morpholine-2-carboxamide] |
| 7.82 | C[C@@H]1CN(c2ccc(Cl)c3ncccc23)C[C@H](C(=O)NC2CCN(C)CC2)O1 [Example 24, (2R,6R)-4-(8-chloro-5-quinolyI)-6-methyl-N-(1-methyl-4-piperidyl)morpholine-2-carboxamide] |
| 7.43 | C[C@@H]1CN(c2ccc(C(F)(F)F)c3ncccc23)C[C@H](C(=O)NC2CNCCOC2)O1 (stereo partly drawn) [Example 14, (2R,6R)-6-methyl-N-(1,4-oxazepan-6-yl)-4-[8-(trifluoromethyl)-5-quinolyl]morpholine-2-carboxamide] |
